The HC50 is the concentration giving 50% haemolysis.

For one data set, the system named is S. aureus M838-17 (MRSA). Kind of data set: microbe, parasite or virus in culture. In kind it is cell-based, Staphylococcus aureus. The conditions noted are these: M838-17; read-out: MIC S. aureus M838-17 (MRSA). In outline: (§1)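 Peptides were serially diluted two-fold against bacteria grown in tryptic soy broth to log phase (OD600 ≈0.5), then seeded at OD600 0.001. Plates were held overnight at 37° C and read at 630 nm. USA300 was also tested at pH 6.8, 7.2 and 8.0, with 150 mM NaCl or 5-10% serum, plasma or peritoneal fluid.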

Data set [1] deals with S. aureus USA300. As to the kind of experiment: microbe, parasite or virus in culture. The class given is cell-based, Staphylococcus aureus. In short, it runs like this:
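Broth microdilution: log-phase cultures in tryptic soy broth diluted to OD600 0.001, exposed to two-fold diluted peptides at 37° C overnight, growth read at 630 nm. Medium effects on S. aureus USA300 tested with up to 200 mM NaCl, 2 mM CaCl2, 5-10% human serum, mouse plasma, fluids or tissue homogenate supernatants.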

The next data set deals with P. aeruginosa PAO1. The class given is cell-based, Pseudomonas aeruginosa. The conditions noted are these: PAO1. In short, it runs like this: (§2)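 Broth microdilution in tryptic soy broth: log-phase cultures (OD600 ≈0.5) diluted to OD600 0.001, given two-fold peptide dilutions, incubated overnight at 37° C. Growth read at 630 nm.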
A further data set deals with E. coli ATCC 25922. The class given is cell-based, Escherichia coli. The conditions noted are these: ATCC 25922. In outline: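 Peptides, serially diluted two-fold, were incubated overnight at 37 °C with E. coli ATCC 25922 from log-phase cultures adjusted to OD600 0.001. Turbidity at 630 nm served as the read-out in this broth microdilution format.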
Another data set in a line: Hemolytic assay. The conditions noted are these: human, human red blood cells, 2% (v/v). In kind it is cell-based, human. In outline:
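HL50 marks the peptide level lysing half of a 2% (v/v) suspension of washed human erythrocytes after 1 h at 37 °C. Released hemoglobin measured at 545 nm, scaled between PBS (0%) and Triton X-100 (2% or 1%; 100%). Selectivity index computed as HL50 over MIC.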

Another data set concerns E. faecium V286-17 (VRE). As to the kind of experiment: microbe, parasite or virus in culture. The conditions noted are these: V286-17 (VRE). In kind it is cell-based, Enterococcus faecium. In outline: as §1
The test system of a further data set is P. aeruginosa E411-17. As to the kind of experiment: microbe, parasite or virus in culture. The class given is cell-based, Pseudomonas aeruginosa. The conditions noted are these: E411-17; read-out: MIC P. aeruginosa E411-17. In short, it runs like this:
as §1

The subject of a further data set is K. pneumoniae E406-17. As to the kind of experiment: microbe, parasite or virus in culture. The conditions noted are these: E406-17; read-out: MIC K. pneumoniae E406-17. In kind it is cell-based, Klebsiella pneumoniae. In outline:
as §2

In a further data set the test system is E. coli ampC E416-7. The class given is cell-based, Escherichia coli. The conditions noted are these: Table 7. The source says: The bacterial strains used include the Gram-positive strains Staphylococcus aureus USA300 LAC, S. epidermidis 1457, and Bacillus subtilis 168, as well as the Gram-negative isolates Escherichia coli K12 and Acinetobacter baumannii B2367-12. Additional, drug resistance strains include Gram-positive Enterococcus faecium V286-17 (VRE) and S. aureus M838-17 (MRSA) and Gram-negative E. coli E423-17, E. coli E416-17 (ampC), and P. aeruginosa E411-17. Bacteria were cultivated in tryptic soy broth (TSB) (BD Bioscience, MD).
The antibacterial activity of peptides was evaluated using a standard broth microdilution protocol with minor modifications as described (Mishra, et al. (2012) J. Am. Chem. Soc., 134:12426-12429). In brief, logarithmic phase bacterial cultures (i.e., optical density at 600 nm≈0.5) were diluted to OD600 0.001 and partitioned into a 96-well polystyrene microplate at 90 μL per well. After treatment with 10 μL of peptide solutions two fold diluted to various concentrations, microplates were incubated at 37° C. overnight and read on a ChroMate® 4300 Microplate Reader at 630 nm (GMI, Ramsey, MN). […] To study the influence of medium conditions on the antimicrobial activity of peptides against S. aureus USA300, up to 200 mM sodium chloride (NaCl), 2 mM of calcium chloride, 5-10% of human serum, mouse plasma, fluid, or supernatants of tissue homogenates were included into the assays.

Another data set has as its system E. coli E423-17. As to the kind of experiment: microbe, parasite or virus in culture. In kind it is cell-based, Escherichia coli. The following applies: E423-17; read-out: MIC E. coli E423-17. In short, it runs like this: as §1
The subject of data set [2] is trypsin, chymotrypsin, S. aureus V8 protease, Proteinase K.
Method: Briefly, a solution (100 μL) of peptide/protease molar ratio, 40:1 was made in 10 mM PBS buffer (pH 8.0) and was incubated at 37° C. Aliquots (10 μL) of the reaction solutions were taken after 1, 3 and 6 days and immediately mixed with 20 μL of 2×SDS loading buffer and boiled in a water bath to stop the reaction. For the SDS gel analysis, 10 μL of each sample was loaded to the well of a 5% stacking/18% resolving tricine gel and run at a constant current of 35 mA.
The test system of data set [3] is S. aureus USA300. The following applies: starting template; cited from earlier work.

≈ marks a conversion by molar mass, not a printed value. Square brackets hold non-standard residues; d marks the D form. Peptide text beside a SMILES is read from it. A value given as a limit tells only on which side of the number the result lay.

Take `CC(C)C[C@@H](NC(=O)[C@@H](CC(C)C)NC(=O)[C@@H](CCCCN)NC(=O)[C@@H](CC(C)C)NC(=O)CNC(=O)[C@@H](CC(C)C)NC(=O)[C@@H](CO)NC(=O)[C@@H](CC(C)C)NC(=O)[C@@H](CC(C)C)NC(=O)[C@@H](CC(C)C)NC(=O)[C@@H](CCCCN)NC(=O)[C@@H](CC(C)C)NC(=O)CN)C(N)=O` [DFT561d, GLKLLLSLGLKLL] (H-G[dL][dK][dL][dL][dL][dS][dL]G[dL][dK][dL][dL]-NH2; N-terminus and C-terminus assumed): the MIC in the data set with S. aureus M838-17 (MRSA) is 3.1 µM (≈ 4.28 µg/mL); in the data set with S. aureus USA300 [1] (USA300), 3.1 µM (≈ 4.28 µg/mL); in the data set on S. aureus USA300 [1] (USA300, pH 6.8), 3.1 µM (≈ 4.28 µg/mL); in the data set on S. aureus USA300 [1] (USA300, pH 7.4), 1.6 µM (≈ 2.21 µg/mL); in the data set with S. aureus USA300 [1] (USA300, pH 8) it was 1.6 µM (≈ 2.21 µg/mL); in the data set on P. aeruginosa E411-17 it was >50 µM. For the same compound, the MIC with K. pneumoniae E406-17 and in the data set on E. coli E423-17 was >50 µM throughout. In addition, in the data set with P. aeruginosa PAO1, the “MIC PA (P. aeruginosa PAO1)” value is >25 µM. Also, in the data set on E. coli ATCC 25922, the “MIC EC (E. coli ATCC 25922)” value was >25 µM. In addition, the HC50 at 1 h in the data set “Hemolytic assay” is > 300 µM. The “MIC E. faecium V286-17 (VRE)” value in the data set on E. faecium V286-17 (VRE) was in the range of 3.1 to 6.25 µM. In the data set on E. coli ampC E416-7, the “MIC E. coli ampC E416-7” value was >50 µM. Also, the “Protease stability” value in data set [2] is reported as “resistant to proteases”.

On to temporin-SHf, for which, in the data set on S. aureus USA300 [3], the “MIC against MRSA” value is 25 µM.

Values taken from patent US12173088B2, “Anti-microbial peptides” (priority 2018, dated 2024).
